Source: PubChem BioAssay (NCI)
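Method: 48-hour compound exposure of cells in 96-well plates, five concentrations, linear interpolation of endpoints. TGI marks complete inhibition of growth.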

Columns and labels:
Assay in all cases: NCI tumour cell line growth inhibition, 48 h
MALME-3M melanoma = test system: MALME-3M melanoma
CCRF-CEM leukemia = test system: CCRF-CEM leukemia
MCF7 breast = test system: MCF7 breast
SF-539 CNS = test system: SF-539 CNS
PC-3 prostate = test system: PC-3 prostate
MOLT-4 leukemia = test system: MOLT-4 leukemia
SNB-75 CNS = test system: SNB-75 CNS
DU-145 prostate = test system: DU-145 prostate
LOX IMVI melanoma = test system: LOX IMVI melanoma
HCT-15 colon = test system: HCT-15 colon
NCI-H522 lung = test system: NCI-H522 lung
OVCAR-4 ovarian = test system: OVCAR-4 ovarian
SK-OV-3 ovarian = test system: SK-OV-3 ovarian
UO-31 renal = test system: UO-31 renal

SMILES | TGI (MALME-3M melanoma) [µM] | TGI (CCRF-CEM leukemia) [µM] | TGI (MCF7 breast) [µM] | TGI (SF-539 CNS) [µM] | TGI (PC-3 prostate) [µM] | TGI (MOLT-4 leukemia) [µM] | TGI (SNB-75 CNS) [µM] | TGI (DU-145 prostate) [µM] | TGI (LOX IMVI melanoma) [µM] | TGI (HCT-15 colon) [µM] | TGI (NCI-H522 lung) [µM] | TGI (OVCAR-4 ovarian) [µM] | TGI (SK-OV-3 ovarian) [µM] | TGI (UO-31 renal) [µM]
COc1cc2c3c([nH]c2c(OC)c1OC)CCN(Cc1ccccc1)C3 | 38.1 | > 100 | 41.8 | 38.5 | > 100 | > 100 | > 100 | > 100 | 32.1 | > 100 | > 100 | > 100 | – | –
CCCCNc1nc(NC2OCC(OC(C)=O)C(OC(C)=O)C2OC(C)=O)c(N=O)c(=O)n1C (stereo not drawn) | > 10 | > 10 | > 10 | > 10 | > 10 | > 10 | > 10 | > 10 | > 10 | > 10 | > 10 | > 10 | > 10 | –
COc1cc(CNc2nc3ccccc3nc2C(=O)O)cc(OC)c1OC | > 100 | > 100 | > 100 | > 100 | > 100 | > 100 | > 100 | > 100 | > 100 | > 100 | > 100 | > 100 | > 100 | > 100
CN(C)CCc1c2c(nc3ccccc13)C(=O)c1cccnc1C2=O | 1.79 | 4.85 | 1.59 | 0.671 | 3.02 | 6.71 | 2.29 | 1.22 | 0.13 | 0.927 | 0.654 | 2.79 | 2.52 | 1.88
CC(C)/C(Cl)=N/OC(=O)Nc1ccc(Cl)c(Cl)c1 | 4.33 | 3.91 | 26.9 | 28.9 | 33.1 | 6.2 | 35.3 | 32.5 | 3.16 | 5.59 | 3.25 | 22.5 | 30.7 | 28.6
c1ccc(N=C2c3ccsc3C(=Nc3ccccc3)c3ccsc32)cc1 | 0.921 | 15 | 4.79 | 3.83 | 9.44 | 3.77 | 2.45 | 3.12 | 1.38 | 4.12 | 4.34 | 3.32 | 16.3 | 3.74
COC(=O)C(Cc1c[nH]c2ccccc12)N=C1Nc2ccncc2S(=O)(=O)N1c1cccc(OC(C)C)c1 (stereo not drawn) | > 100 | > 100 | > 100 | > 100 | > 100 | 75.8 | > 100 | > 100 | > 100 | > 100 | > 100 | > 100 | > 100 | > 100
CC(C)(C)OC(=O)NCCCCC(N)NC(=O)c1ccccc1 (stereo not drawn) | > 100 | > 100 | > 100 | > 100 | > 100 | > 100 | > 100 | > 100 | > 100 | > 100 | > 100 | > 100 | > 100 | > 100
CC1CC(C#N)=C2NCCN2C1=O (stereo not drawn) | > 100 | > 100 | 50.7 | > 100 | > 100 | > 100 | > 100 | > 100 | > 100 | > 100 | > 100 | > 100 | > 100 | > 100
COC(=O)C1CCC(=O)N1C(c1ccc2c(c1)OCO2)c1cc(OC)c(OC)c(OC)c1 (stereo not drawn) | > 100 | > 100 | > 100 | > 100 | > 100 | > 100 | > 100 | > 100 | > 100 | > 100 | 24.4 | > 100 | > 100 | > 100
CC1(C)CC(=O)c2c(nc3c4c([nH]c(-c5ccc(Br)cc5)c24)CC(C)(C)C3)C1 | > 100 | > 100 | > 100 | > 100 | > 100 | > 100 | > 100 | > 100 | > 100 | > 100 | > 100 | > 100 | > 100 | > 100
CN(C)CCNC(=O)c1cccc2c(NC(CCC(N)=O)C(=O)O)c3ccccc3nc12 (stereo not drawn) | 19.5 | > 100 | 51.3 | 21.7 | 23.5 | 71.3 | 30.8 | > 100 | 35.6 | 22.5 | 22.3 | 60.6 | 54.9 | 7.15
COc1ccc2c3c1O[C@H](c1ccc(O)cc1)[C@H]3[N+](C)(C)CC2 | > 100 | > 100 | > 100 | > 100 | > 100 | > 100 | > 100 | > 100 | > 100 | > 100 | > 100 | > 100 | > 100 | > 100
O=C1c2c(Br)sc(Br)c2[C@@H](NC(=O)C(F)(F)F)C1Br (stereo partly drawn) | 4.88 | 5.64 | 15.6 | 6.82 | 15.1 | 5.32 | 16.1 | 18.3 | 3.24 | 4.61 | 5.07 | 5.33 | 32.8 | 12.5
Clc1ccc2oc(CCc3ccccc3)nc2c1 | > 100 | > 100 | > 100 | > 100 | > 100 | > 100 | 62.8 | > 100 | > 100 | > 100 | > 100 | > 100 | > 100 | > 100
CC(C)(CCC(C)(C)N1OC1c1ccccc1)N1OC1c1ccccc1 (stereo not drawn) | > 100 | 35 | > 100 | > 100 | > 100 | – | > 100 | > 100 | > 100 | > 100 | 22.2 | > 100 | > 100 | 62.7
c1ccc(CC2COC(c3cccs3)=N2)cc1 (stereo not drawn) | > 100 | > 100 | > 31.6 | > 100 | > 100 | > 100 | > 100 | > 100 | > 100 | > 100 | > 100 | > 100 | > 100 | > 100
CC(=O)OCC1OC(OCCCOP(=S)(OCCC#N)OCC2OC(n3ccc(N)nc3=O)C(OC(=O)c3ccccc3)C2OC(=O)c2ccccc2)C(OC(C)=O)C(OC(C)=O)C1OC(C)=O (stereo not drawn) | > 100 | > 100 | > 100 | > 100 | > 100 | > 100 | > 100 | > 100 | > 100 | > 100 | > 100 | > 100 | > 100 | > 100
Nc1nc2c(C(=O)O)c3ccc([N+](=O)[O-])cc3c(=O)n2c2ccccc12 | > 100 | > 100 | 49.1 | – | 74.9 | > 100 | 35.3 | 49.4 | 32.2 | 71.8 | 44.1 | > 100 | 74.1 | > 100
CC(=O)O[C@H]1CC[C@@]2(C)C(=CC[C@@H]3[C@@H]2CC[C@]2(C)c4nc(Cl)ccc4C[C@@H]32)C1 | > 100 | 58.4 | 62.3 | – | > 100 | > 100 | 94 | > 100 | > 100 | > 100 | > 100 | > 100 | > 100 | > 100
CN(CCCNC(=O)c1cc(-c2ccccc2)nc2ccccc12)CCCNC(=O)c1cc(-c2ccccc2)nc2ccccc12 | 3.39 | 17.6 | 3.2 | 4.67 | 13 | 5.33 | 5.02 | 9.49 | 3.56 | 12.2 | 3.51 | 11.3 | 26.2 | 6.52
CCN(CC)c1nnc(CCCCCCCCc2nnc(N(CC)CC)o2)o1 | > 100 | > 100 | > 100 | > 100 | > 100 | > 100 | > 100 | > 100 | > 100 | > 100 | > 100 | > 100 | > 100 | > 100
O=[N+]([O-])c1ccc(C(O)(C#CCN2CCCC2)c2ccccc2)cc1 (stereo not drawn) | 30.4 | 57.5 | > 100 | > 100 | > 100 | 64.4 | > 100 | > 100 | 43.9 | > 100 | 54.9 | > 100 | > 100 | > 100
N#Cc1nc(C#N)n(S(=O)(=O)c2ccccc2)c1NS(=O)(=O)c1ccccc1 | > 100 | > 100 | > 100 | > 100 | > 100 | > 100 | > 100 | > 100 | > 100 | > 100 | > 100 | > 100 | > 100 | 79.6
O=c1[nH]c2nc3ccccc3c(=O)n2/c1=C/c1ccco1 | > 100 | > 100 | > 100 | > 100 | > 100 | > 100 | > 100 | > 100 | > 100 | > 100 | > 100 | > 100 | > 100 | > 100
CCc1ccc2c(c1)N(CC(C)CN(C)C)c1ccccc1S2 (stereo not drawn) | 8.37 | 4.99 | 11.5 | 24.1 | 17.1 | 1.91 | 9.94 | 21.4 | 10.3 | 17.8 | 7.96 | 17 | 18.7 | 10.3
O=C(O)c1cc(CCc2cc(O)ccc2O)ccc1O | > 100 | 71.4 | > 100 | > 100 | > 100 | > 100 | > 100 | > 100 | > 100 | > 100 | > 100 | > 100 | > 100 | > 100
COc1ccc(C2=NOC(N)(c3ccc(OC)cc3)C2)cc1 (stereo not drawn) | > 100 | > 100 | > 100 | > 100 | > 100 | > 100 | > 100 | > 100 | > 100 | > 100 | > 100 | > 100 | > 100 | > 100
CNNC(=NS(=O)(=O)c1cc(C#N)c(NNC)cc1S)NNC | > 10 | > 10 | > 10 | > 10 | > 10 | > 10 | > 10 | > 10 | > 10 | > 10 | > 10 | > 10 | > 10 | > 10
CCOC(=O)C1CCCCN1C(=O)Cc1c[nH]c2ccccc12 (stereo not drawn) | > 100 | > 100 | > 100 | > 100 | > 100 | > 100 | > 100 | > 100 | > 100 | > 100 | > 100 | > 100 | > 100 | –
